Measured values as given in the NIST ThermoML archive (doi:10.1021/je049636m).

Conditions: Liquid

Cc1ccccc1 [toluene]
Conditions	viscosity [mPa·s]
298.15 K, 100 kPa	0.555
298.15 K, 2110 kPa	0.5649
298.15 K, 4100 kPa	0.5743
298.15 K, 6100 kPa	0.585
298.15 K, 8110 kPa	0.5937
298.15 K, 10110 kPa	0.6024
323.15 K, 100 kPa	0.4188
323.15 K, 2080 kPa	0.429
323.15 K, 4110 kPa	0.4348
323.15 K, 6000 kPa	0.4409
323.15 K, 8120 kPa	0.4493
323.15 K, 10050 kPa	0.455
323.15 K, 12210 kPa	0.4637
323.15 K, 15000 kPa	0.4736
348.15 K, 100 kPa	0.3331
348.15 K, 2120 kPa	0.3382
348.15 K, 12110 kPa	0.3664
348.15 K, 15210 kPa	0.3759

viscosity [mPa·s], Vibrating wire viscometry
Conditions	100 kPa	10000 kPa	20000 kPa	30000 kPa	40000 kPa
298.15 K	0.5551	0.6003	0.6445	0.6953	0.751
323.15 K	0.4223	0.4573	0.4945	0.5313	0.5718
348.15 K	0.3285	0.3583	0.3875	0.4165	0.4483
